Measured values: US20110118277A1, “METHOD OF TREATING LIVER DISEASE” (priority 2003, published 2011)

Legend:
VEGF = experiment: Ribonuclease protection assay of whole liver RNA: VEGF; format: in vivo, mouse; conditions: RPA, normalized to GAPDH, mean±SEM of 4 mice, HMCDE diet
Protocol: (§1) Total […] was isolated from frozen liver samples according to the method of Chomczynski and Sacchi as described in Gastroenterology 2002; 123: 1304-1310. KNA concentration was determined by optical density and quality was assessed by agarose gel electrophoresis and ethidium bromide staining. Commercial ribonuclease protection assay (RPA) kits with probes for murine cytokines (PharMingen, San Diego, Calif.) were used to evaluate factors that might be involved in the recruitment and expansion of HPC after liver injury. The factors studied were Stem Cell Factor (SCF), Hepatocyte Growth Factor (HGF), Interleukin-7 (IL-7), IL-11, Leukaemia Inhibitory Factor (LEF), Granulocyte-Macrophage Colony Stimulating Factor (GM-CSF), Granulocyte Colony, Stimulating Factor (G-CSF), Vascular Endothelial Growth Factor (VEGF), and its receptors, VEGFR1 and VEGFR3. Details of the RPA are described in J Pathol 2003; 199:191-200.
(§2) Total RNA was isolated from frozen liver samples as described in Mech Dev 120: 117-130, 2003. RNA concentration was determined by optical density and quality assessed by agarose gel electrophoresis and ethidium bromide staining. […]
(§3) In Table 1, Total liver RNA was obtained from 4 mice per treatment group and analyzed by RPA 20 μg RNA sample from each mouse was evaluated. Results are normalized to concurrently assessed expression of GAPDH in the same RNA samples. […]

VEGFR1 = experiment: Ribonuclease protection assay of whole liver RNA: VEGFR1; format: in vivo, mouse; conditions: RPA, normalized to GAPDH, mean±SEM of 4 mice, HMCDE diet
Protocol: as §1, §2, §3

[1] = system: carbon tetrachloride-treated rats; conditions: earlier study; cited from earlier work
VEGFR3 = experiment: Ribonuclease protection assay of whole liver RNA: VEGFR3; format: in vivo, mouse; conditions: RPA, normalized to GAPDH, mean±SEM of 4 mice, HMCDE diet
Protocol: as §1, §2, §3

[2] = system: bone marrow-derived hematopoietic progenitors; conditions: treatment of mice, shown hitherto; cited from earlier work
oval cells = experiment: Immunohistochemical count of hepatic oval cells (HPC) in HMCDE-fed mice; format: in vivo, mouse; conditions: FIGS. 4A-4C, immunohistochemistry (and flow cytometry), P<0.001
Protocol: Immunohistochemical analysis of HPC was performed with a mouse monoclonal OV6-type antibody (from Dr Stuart Sell, Albany Medical College, Albany, N.Y.) reacting with cytokeratins 14 and 19; a rabbit polyclonal antibody against 56 and 64 kD human callus cytokeratins (Dako, Denmark) and a rat monoclonal antibody to cytokeratin 19 as described Am J Pathol 2002; 161:521-530.
Details of the staining procedures are as described Am J Pathol 2002; 161:521-530. Briefly, 4 um thick paraffin sections were deparaffinized and rehydrated, followed by heating in a microwave oven for 10 minutes at 750 Watt in citrate buffer, pH 6.0. Incubation with the primary antibodies was performed at room temperature for 30 minutes. Mouse monoclonal OV6 antibody and rat anti-cytokeratin 19 were detected using the DAKO Animal Research Kit, peroxidase (Dako, Denmark). The rabbit polyclonal antibody against 56 and 64 kD human callus cytokeratins was detected by anti-rabbit Envision (Dako, Denmark) as described in J Pathol 2003; 199:191-200. […]
To evaluate the effect of treatments on the HPC compartment, coded samples were examined by an experienced liver pathologist blinded to treatment groups. For each liver section, the number of HPC in 5, randomly selected, non-overlapping, high power (×40 objective) fields was counted. […] Interlobular bile ducts were not considered progenitor cells and, thus, were not counted as such.

G-CSF = experiment: Ribonuclease protection assay of whole liver RNA: G-CSF; format: in vivo, mouse; conditions: RPA, normalized to GAPDH, mean±SEM of 4 mice, HMCDE diet
Protocol: as §1, §2, §3

LIN^−ve/Thy-1^+ve cells = experiment: Flow cytometry of putative bone marrow-derived hepatic progenitors in liver of HMCDE-fed mice; format: in vivo, mouse; conditions: FIG. 4C, P<0.03 (PRZ), <0.05 (6-OHDA)
Source text: The hepatic non-parenchymal cell fraction, which contains the oval cell population and the NK-T cell populations, were isolated as described in Hepatology 1998; 27:433-455 and Gastroenterology 2002; 123:[…]. Briefly, livers were carefully removed and homogenized in Stomacher80 (Seawood, England). The homogenate was then passed through a 100-μm wire mesh and liver cells were collected by centrifugation at 450 g. Mononuclear cells were purified from this fraction by centrifugation at 900 g over 35% Percoll gradients (Amersham Pharmacia Biotech) and incubated with normal mouse serum (Sigma, St Louis, Mo.) and Fc-receptor block (anti-CD16/CD32) to prevent nonspecific binding, plus APC-conjugated anti-mouse Thy-1.2 (the C57BL-6 form of the Thy-1 antibody) and antibodies directed against hematopoietic lineage markers (LIN, a mix of anti-mouse CD4, CD8, CD3, CD45, CD19, Mac-1, Gr-1, Ter119). For NK-T cell labelling, the mononuclear cells were incubated with […] anti-mouse NK-1.1 and PE-conjugated anti-mouse CD3. […] After incubation, pellets were washed to remove unbound antibodies, fixed with 2% formaldehyde and evaluated by FACS (Becton Dickenson). […] Data was analyzed by Cell Quest software (Becton Dickenson) to determine changes in these cell populations in different treatment groups.

HGF = experiment: Ribonuclease protection assay of whole liver RNA: HGF; format: in vivo, mouse; conditions: for effect on HMCDE-induced increase of hepatic HGF expression: versus HMCDE alone; for Gene Expression HGF: whole liver RNA, RPA, normalized to GAPDH, mean±SEM of 4 mice, HMCDE diet
Protocol: as §1
Total RNA was isolated from frozen liver samples as described in Mech Dev 120: 117-130, 2003. RNA concentration was determined by optical density and quality assessed by agarose gel electrophoresis and ethidium bromide staining. Ribonuclease protection assay (RPA) kits with probes for murine cytokines (PharMingen, San Diego, Calif.) were used to evaluate factors that might be involved in the recruitment and expansion of HPC after liver injury. The factors studied were Stem Cell Factor (SCF), Hepatocyte Growth Factor ([…]), Interleukin-6 (IL-6), IL7, IL-11, Leukaemia Inhibitory Factor (LIF), Granulocyte-Macrophage Colony Stimulating Factor (GM-CSF), Macrophage Colony Stimulating Factor (M-CSF), Granulocyte Colony Stimulating Factor (G-CSF), Vascular Endothelial Growth Factor (VEGF), and its receptors, VEGFR1 and YEGFR3.
In Table 1, Total liver RNA was obtained from 4 mice per treatment group and analyzed by RPA 20 μg RNA sample from each mouse was evaluated. Results are normalized to concurrently assessed expression of GAPDH in the same RNA samples. Data shown are the mean±SEM results of 4 mice per treatment group. Similar results were obtained in a second experiment.

Row | SMILES | Gene Expression VEGF (VEGF) | Gene Expression VEGFR1 (VEGFR1) | development of cirrhosis [1] | Gene Expression VEGFR3 (VEGFR3) | mobilization of hematopoietic progenitors [2] | oval cell / HPC number versus HMCDE diet alone (oval cells) | Gene Expression G-CSF (G-CSF) | LIN^−ve/Thy-1^+ve cells in liver versus HMCDE diet alone (LIN^−ve/Thy-1^+ve cells) | effect on HMCDE-induced increase of hepatic HGF expression (HGF) | Gene Expression HGF (HGF)
1 | COc1cc2nc(N3CCN(C(=O)c4ccco4)CC3)nc(N)c2cc1OC [PRZ, prazosin] | 1.4 ± 0.4 | 0.2 ± 0.2 | prevents the development of cirrhosis | 1.7 ± 0.4 | mobilize bone marrow-derived hematopoietic progenitors into the circulation | significantly augments diet-induced HPC expansion | 1.0 ± 0.3 | more LIN^−ve/Thy-1^+ve cells | did not augment this response | 2.1 ± 0.30
2 | NCCc1cc(O)c(O)cc1O [6-OHDA, 6-hydroxydopamine] | 2.3 ± 0.5 | 0.4 ± 0.1 |  | 2.1 ± 1.0 | mobilize bone marrow-derived hematopoietic progenitors into the circulation | significantly augments diet-induced HPC expansion | 1.4 ± 0.3 | more LIN^−ve/Thy-1^+ve cells | did not augment this response | 2.4 ± 0.75
